{"source": "patent US20060040991A1", "about": "“Pharmaceutical presentation form for oral administration of a poorly soluble active compound, process for its preparation and kit” (Baxter International Inc., priority 2004, published 2006)", "key": {"[1]": {"assay": "Solubility of indibulin in solvents", "assay_type": "physicochemical"}, "[2]": {"assay": "Bioavailability on peroral administration in customary presentation forms", "assay_type": "in vivo"}, "tubulin": {"system": "tubulin", "conditions": "cited from earlier work"}}, "data": [{"molecule": "O=C(Nc1ccncc1)C(=O)c1cn(Cc2ccc(Cl)cc2)c2ccccc12", "note": "[indibulin, N-(pyridin-4-yl)-[1-(4-chlorobenzyl)indol-3-yl]-glyoxylamide]", "values": [{"measurement": "solubility in various organic solvents", "setting": "[1]; dimethylformamide, dimethyl sulfoxide and N-methylpyrrolidone", "result": "Adequate solubility"}, {"measurement": "solubility in highly concentrated organic acids", "setting": "[1]; greater than 50% by weight, e.g. acetic acid or lactic acid", "result": "relatively good solvents"}, {"measurement": "solubility in hydrophilic solvents", "setting": "[1]; water, methanol, ethanol and isopropanol", "result": "virtually insoluble"}, {"measurement": "bioavailability", "setting": "[2]; micronized active compound processed to oral presentation forms (suspensions, capsules or tablets)", "result": "comparatively low"}, {"measurement": "bioavailability", "setting": "[2]; perorally in customary presentation forms, e.g. powder, granule, tablet or capsule", "result": "low"}, {"measurement": "in vitro and in vivo activity as a tubulin inhibitor", "setting": "tubulin", "result": "significant"}]}]}
